Results as given in patent US10604512B2, “3-(1H-indol-2-yl)-1H-indazoles and therapeutic uses thereof” (Samumed, LLC, priority 2015, dated 2020).

What was measured:
Format in all cases: cell-based
[1] = test system: Primary human fibroblasts derived from IPF patients (LL29 cells) treated with TGF-β1; test: Inhibition of the fibrotic process: αSMA staining in TGF-β1-treated primary human fibroblasts from IPF patients (LL29 cells); details: Fibroblast, 96 h; for EC50: % αSMA-positive LL29 cells, TGF-β1 20 ng/mL, 4 days; for inhibition at 10 µM: given where EC50 >10 μM, αSMA, LL29 cells, TGF-β1, 4 days, read-out: percent inhibition at 10 μM
In short: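 LL29 IPF-patient fibroblasts in 1% FBS stimulated with TGF-β1 (20 ng/mL) and compound (10 μM–1.87 nM, 0.1% DMSO) for 4 days at 37 °C. SYTOX-positive cells excluded; % αSMA-positive cells imaged, normalized to TGF-β1/DMSO wells; EC50 by nonlinear regression, else % inhibition at 10 μM.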

[2] = test system: IL-6; test: Inhibition of IL-6 in LPS-stimulated THP-1 human monocyte cells (HTRF); details: for EC50: IL-6 inhibition, LPS-stimulated THP-1 cells, HTRF; for inhibition at 10 µM: THP-1, printed beside >10 μM EC50, top concentration 10 μM, meaning not given, read-out: percentage in parentheses after EC50 >10
In short: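 THP-1 cells serum-reduced (1% FBS, 24 h), then 5000 cells/well preincubated 2 h with compound (10-point 1:3 series from 10 μM, 0.1% DMSO) before 500 ng/mL LPS for 22 h at 37 °C. Secreted IL-6 quantified by HTRF 665/620 ratio; DMSO-normalised duplicates fitted to four-parameter EC50; above 10 μM, % inhibition at 10 μM given.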

[3] = test system: SW480 colon cancer cells; test: Cell viability assay (CellTiter-Blue) in SW480 colon cancer cells; details: Homo sapiens, 96 h, four days; for inhibition at 10 µM: given where EC50 >10 μM, read-out: percent inhibition at 10 μM; for EC50: CellTiter-Blue
In short: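 Resazurin reduction (Ex 560/Em 590 nm, ~3 h reagent incubation) served as the viability read-out after SW480 cells were treated for four days at 37 °C. Doses ran from 10 μM down to 0.0045 μM in eight 1:3 steps. Curves fitted non-linearly for EC50, else % inhibition at 10 μM reported.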

Question: Which EC50 [1] does the source give for `FC1(F)CCN(Cc2cncc(-c3ccc4[nH]nc(-c5cc6c(-c7cccnc7)cccc6[nH]5)c4c3)c2)C1` [Compound 110, 5-(5-((3,3-Difluoropyrrolidin-1-yl)methyl)pyridin-3-yl)-3-(4-(pyridin-3-yl)-1H-indol-2-yl)-1H-indazole] here?
Answer: 9980 nM

Question: What about the EC50 [2] of the same compound?
Answer: > 10000 nM

Question: What about the inhibition at 10 µM [2] of the same compound?
Answer: 32.2%

Question: What about the inhibition at 10 µM [3] of the same compound?
Answer: 20.3%

Question: And the EC50 [3]?
Answer: > 10000 nM

Question: With `c1cncc(-c2cccc3[nH]c(-c4n[nH]c5ccc(-c6cncnc6)cc45)cc23)c1` [Compound 111, 3-(4-(Pyridin-3-yl)-1H-indol-2-yl)-5-(pyrimidin-5-yl)-1H-indazole] as the compound, how does the EC50 [1] read?
Answer: 857 nM

Question: And the EC50 [2]?
Answer: 3060 nM

Question: What about the EC50 [3] of the same compound?
Answer: 9660 nM

Question: With `Cc1ccncc1-c1ccc2[nH]nc(-c3cc4c(-c5ccncc5)cccc4[nH]3)c2c1` [Compound 117, 5-(4-Methylpyridin-3-yl)-3-(4-(pyridin-4-yl)-1H-indol-2-yl)-1H-indazole] as the compound, how does the EC50 [1] read?
Answer: > 10000 nM

Question: And the inhibition at 10 µM [1]?
Answer: 17.7%

Question: What about the EC50 [2] of the same compound?
Answer: > 10000 nM

Question: And the inhibition at 10 µM [2]?
Answer: 38.6%

Question: And the inhibition at 10 µM [3]?
Answer: 20.9%

Question: And the EC50 [3]?
Answer: > 10000 nM

Question: Which results are given for `CCNCc1cncc(-c2ccc3[nH]nc(-c4cc5c(-c6ccncc6)cccc5[nH]4)c3c2)c1` [Compound 118, N-((5-(3-(4-(Pyridin-4-yl)-1H-indol-2-yl)-1H-indazol-5-yl)pyridin-3-yl)methyl)ethanamine]?
Answer: EC50 [1]: 888 nM; EC50 [2]: 137 nM; EC50 [3]: 528 nM

Question: With `O=C(Cc1ccccc1)Nc1cncc(-c2ccc3[nH]nc(-c4cc5c(-c6ccncc6)cccc5[nH]4)c3c2)c1` [Compound 122, 2-Phenyl-N-(5-(3-(4-(pyridin-4-yl)-1H-indol-2-yl)-1H-indazol-5-yl)pyridin-3-yl)acetamide] as the compound, how does the EC50 [1] read?
Answer: > 10000 nM

Question: And the inhibition at 10 µM [1]?
Answer: 0%

Question: What about the EC50 [2] of the same compound?
Answer: > 10000 nM

Question: And the inhibition at 10 µM [2]?
Answer: 29.6%

Question: And the inhibition at 10 µM [3]?
Answer: 7.8%

Question: And the EC50 [3]?
Answer: > 10000 nM

Question: How did the EC50 [1] turn out when `CN(C)Cc1cncc(-c2ccc3[nH]nc(-c4cc5c(-c6ccncc6)cccc5[nH]4)c3c2)c1` [Compound 125, N,N-dimethyl-1-(5-(3-(4-(Pyridin-4-yl)-1H-indol-2-yl)-1H-indazol-5-yl)pyridin-3-yl)methanamine] was run?
Answer: 1240 nM

Question: And the EC50 [2]?
Answer: 150 nM

Question: What about the EC50 [3] of the same compound?
Answer: 412 nM

Question: Which results are given for `CCCC(=O)Nc1cncc(-c2ccc3[nH]nc(-c4cc5c(-c6ccncc6)cccc5[nH]4)c3c2)c1` [Compound 129, N-(5-(3-(4-(Pyridin-4-yl)-1H-indol-2-yl)-1H-indazol-5-yl)pyridin-3-yl) butyramide]?
Answer: EC50 [1]: 2870 nM; EC50 [2]: > 10000 nM; inhibition at 10 µM [2]: 33.4%; EC50 [3]: 9530 nM

Question: With `c1cc(-c2ccncc2)c2cc(-c3n[nH]c4ccc(-c5ccncc5)cc34)[nH]c2c1` [Compound 130, 5-(Pyridin-4-yl)-3-(4-(pyridin-4-yl)-1H-indol-2-yl)-1H-indazole] as the compound, how does the EC50 [1] read?
Answer: 1650 nM

Question: What about the EC50 [2] of the same compound?
Answer: > 10000 nM

Question: And the inhibition at 10 µM [2]?
Answer: 48.8%

Question: What about the inhibition at 10 µM [3] of the same compound?
Answer: 23.2%

Question: What about the EC50 [3] of the same compound?
Answer: > 10000 nM

Question: For `O=C(Nc1cncc(-c2ccc3[nH]nc(-c4cc5c(-c6ccncc6)cccc5[nH]4)c3c2)c1)C1CC1` [Compound 132, N-(5-(3-(4-(Pyridin-4-yl)-1H-indol-2-yl)-1H-indazol-5-yl)pyridin-3-yl) cyclopropanecarboxamide], which EC50 [1] is on record?
Answer: 76 nM

Question: And the EC50 [2]?
Answer: 109 nM

Question: What about the EC50 [3] of the same compound?
Answer: 462 nM

Question: For `O=C(Nc1cncc(-c2ccc3[nH]nc(-c4cc5c(-c6ccncc6)cccc5[nH]4)c3c2)c1)C1CCCCC1` [Compound 135, N-(5-(3-(4-(Pyridin-4-yl)-1H-indol-2-yl)-1H-indazol-5-yl)pyridin-3-yl) cyclohexanecarboxamide], which EC50 [1] is on record?
Answer: > 10000 nM

Question: What about the inhibition at 10 µM [1] of the same compound?
Answer: 10.7%

Question: What about the EC50 [2] of the same compound?
Answer: 9900 nM

Question: What about the inhibition at 10 µM [3] of the same compound?
Answer: 12.2%

Question: And the EC50 [3]?
Answer: > 10000 nM

Question: For `c1ccc(-c2ccc3[nH]nc(-c4cc5c(-c6ccncc6)cccc5[nH]4)c3c2)nc1` [Compound 140, 5-(Pyridin-2-yl)-3-(4-(pyridin-4-yl)-1H-indol-2-yl)-1H-indazole], which EC50 [1] is on record?
Answer: 1260 nM

Question: What about the EC50 [2] of the same compound?
Answer: 136 nM

Question: What about the inhibition at 10 µM [3] of the same compound?
Answer: 37.8%

Question: What about the EC50 [3] of the same compound?
Answer: > 10000 nM

Question: What does the source list for `Nc1cncc(-c2ccc3[nH]nc(-c4cc5c(-c6ccccn6)cccc5[nH]4)c3c2)c1` [Compound 143, 5-(3-(4-(Pyridin-2-yl)-1H-indol-2-yl)-1H-indazol-5-yl)pyridin-3-amine]?
Answer: EC50 [1]: 82 nM; EC50 [2]: 290 nM; EC50 [3]: 748 nM

Question: Which EC50 [1] does the source give for `Cc1ccncc1-c1ccc2[nH]nc(-c3cc4c(-c5ccccn5)cccc4[nH]3)c2c1` [Compound 145, 5-(4-Methylpyridin-3-yl)-3-(4-(pyridin-2-yl)-1H-indol-2-yl)-1H-indazole] here?
Answer: 2940 nM

Question: And the EC50 [2]?
Answer: 4840 nM

Question: And the inhibition at 10 µM [3]?
Answer: 36.7%

Question: What about the EC50 [3] of the same compound?
Answer: > 10000 nM

Question: For `O=C(Nc1cncc(-c2ccc3[nH]nc(-c4cc5c(-c6ccccn6)cccc5[nH]4)c3c2)c1)c1ccccc1` [Compound 151, N-(5-(3-(4-(Pyridin-2-yl)-1H-indol-2-yl)-1H-indazol-5-yl)pyridin-3-yl) benzamide], which EC50 [1] is on record?
Answer: > 10000 nM

Question: What about the inhibition at 10 µM [1] of the same compound?
Answer: 0%

Question: And the EC50 [2]?
Answer: > 10000 nM

Question: What about the inhibition at 10 µM [2] of the same compound?
Answer: 46.9%

Question: What about the inhibition at 10 µM [3] of the same compound?
Answer: 17.7%

Question: And the EC50 [3]?
Answer: > 10000 nM

Question: Which results are given for `c1ccc(-c2cccc3[nH]c(-c4n[nH]c5ccc(-c6cncc(CN7CCCC7)c6)cc45)cc23)nc1` [Compound 154, 3-(4-(Pyridin-2-yl)-1H-indol-2-yl)-5-(5-(pyrrolidin-1-ylmethyl)pyridin-3-yl)-1H-indazole]?
Answer: EC50 [1]: 222 nM; EC50 [2]: 750 nM; EC50 [3]: 2800 nM

Question: Which EC50 [1] does the source give for `c1ccc(-c2cccc3[nH]c(-c4n[nH]c5ccc(-c6ccncc6)cc45)cc23)nc1` [Compound 158, 3-(4-(Pyridin-2-yl)-1H-indol-2-yl)-5-(pyridin-4-yl)-1H-indazole] here?
Answer: 627 nM

Question: What about the EC50 [2] of the same compound?
Answer: 1580 nM

Question: What about the inhibition at 10 µM [3] of the same compound?
Answer: 36.9%

Question: And the EC50 [3]?
Answer: > 10000 nM

Question: With `CCCCC(=O)Nc1cncc(-c2ccc3[nH]nc(-c4cc5c(-c6ccccn6)cccc5[nH]4)c3c2)c1` [Compound 159, N-(5-(3-(4-(Pyridin-2-yl)-1H-indol-2-yl)-1H-indazol-5-yl)pyridin-3-yl) pentanamide] as the compound, how does the EC50 [1] read?
Answer: > 10000 nM

Question: And the inhibition at 10 µM [1]?
Answer: 45.6%

Question: And the EC50 [2]?
Answer: > 10000 nM

Question: And the inhibition at 10 µM [2]?
Answer: 39.3%

Question: What about the inhibition at 10 µM [3] of the same compound?
Answer: 22.3%

Question: And the EC50 [3]?
Answer: > 10000 nM

Question: `c1ccc(-c2cccc3[nH]c(-c4n[nH]c5ccc(-c6cncnc6)cc45)cc23)nc1` [Compound 167, 3-(4-(Pyridin-2-yl)-1H-indol-2-yl)-5-(pyrimidin-5-yl)-1H-indazole] was tested. Which EC50 [1] did it give?
Answer: 1200 nM

Question: And the EC50 [2]?
Answer: 979 nM

Question: And the inhibition at 10 µM [3]?
Answer: 10.9%

Question: And the EC50 [3]?
Answer: > 10000 nM

Question: With `CCC(=O)Nc1cncc(-c2ccc3[nH]nc(-c4cc5c(N6CCCCC6)cccc5[nH]4)c3c2)c1` [Compound 169, N-(5-(3-(4-(Piperidin-1-yl)-1H-indol-2-yl)-1H-indazol-5-yl)pyridin-3-yl) propionamide] as the compound, how does the EC50 [1] read?
Answer: 1020 nM

Question: And the EC50 [2]?
Answer: > 10000 nM

Question: What about the inhibition at 10 µM [2] of the same compound?
Answer: 41.7%

Question: What about the inhibition at 10 µM [3] of the same compound?
Answer: 10.4%

Question: What about the EC50 [3] of the same compound?
Answer: > 10000 nM

Question: For `CN(C)Cc1cncc(-c2ccc3[nH]nc(-c4cc5c(N6CCCCC6)cccc5[nH]4)c3c2)c1` [Compound 181, N,N-Dimethyl-1-(5-(3-(4-(piperidin-1-yl)-1H-indol-2-yl)-1H-indazol-5-yl)pyridin-3-yl)methanamine], which EC50 [1] is on record?
Answer: 4820 nM

Question: And the EC50 [2]?
Answer: > 10000 nM

Question: What about the inhibition at 10 µM [2] of the same compound?
Answer: 40.7%

Question: What about the EC50 [3] of the same compound?
Answer: 4160 nM
